Test results published in patent publication US5852190A, “Diazepinoindoles as phosphodiesterase IV inhibitors” (Institut de Recherche Jouveinal SA, priority 1994, dated 1998).

Tests used:
PDE IV = PDE IV inhibition (partially purified enzyme) compared with rolipram; assay type: biochemical; conditions: enzyme preparation obtained from guinea-pig trachea; same enzyme preparation for rolipram and product
Method: The capacity of the compounds of formula (I) of the invention to inhibit cyclic nucleotide phosphodiesterases is evaluated by measuring their IC50 (concentration of inhibitor required to inhibit enzymatic activity by 50%). In the case of PDEs IV, this value is compared with the IC50 of rolipram, a specific inhibitor of PDE IV, by the ratio of the IC50 of rolipram to the IC50 of the product to be tested, in relation to the same enzyme preparation.
The different classes of phosphodiesterases are obtained in partially purified form on a DEAE-cellulose column from guinea-pig trachea and dog aorta according to a method adapted from that of W. J. Thompson et al., 1979, Advances in Cyclic Nucleotide Research, Vol. 10: 69-92, ed. G. Brooker et al., Raven Press, New York, and of P. J. Silver et al., 1988, Eur. J. Pharmacol. 150: 85-94.
Subsequently, the measurement of the enzymatic activity of the different classes of PDE, and in particular of the PDEs IV, is carried out according to a method which is likewise adapted from that of W. J. Thompson, ibidem.
For the determination of the IC50 the enzymatic activity is measured in the presence of the inhibitor in a range of concentrations from 0.1 to 100 μM.
The following table illustrates the PDE IV-inhibitory activity in comparison with that of rolipram for an enzyme preparation obtained from guinea-pig trachea.

phosphodiesterase = conditions: nonspecific inhibitor; cited from earlier work
[1] = cited from earlier work; for undesirable effects: in use
inflammatory cells = conditions: in vitro, rodents; cited from earlier work
[2] = subacute oral toxicity in the rat; assay type: in vivo; conditions: 100 mg/kg/day for two weeks, 1% aqueous suspension in methyl cellulose
From the text: The subacute oral toxicity of Example 2V was studied in the rat.

Structure (SMILES) | IC50 rolipram / IC50 example (PDE IV-inhibitory effect compared with rolipram) (PDE IV) | other results
O=C(N[C@@H]1N=C(c2ccccc2)c2cccc3c2N(CC3)C1=O)c1cccc(F)c1 [Example 2B, (3R)-3-Fluoro-N-(4-oxo-1-phenyl-3,4,6,7-tetrahydro[1,4]diazepino[6,7,1-hi]indol-3-yl)-benzamide] | 1.2 | –
O=C(N[C@@H]1N=C(c2ccccc2)c2cccc3c2N(CC3)C1=O)c1ccc(F)cc1 [Example 2C, (3R)-4-Fluoro-N-(4-oxo-1-phenyl-3,4,6,7-tetrahydro[1,4]diazepino[6,7,1-hi]indol-3-yl) -benzamide] | 1.2 | –
Cn1c(=O)c2[nH]cnc2n(C)c1=O [Theophylline] | – | inhibition of several classes of phosphodiesterases (phosphodiesterase): inhibit several classes of enzymes; undesirable effects [1]: nausea and headaches; therapeutic index ([1]; methylxanthines such as theophylline): low therapeutic index
O=C(N[C@@H]1N=C(c2ccccc2)c2cccc3c2N(CC3)C1=O)c1cnc2ccccc2c1 [Example 2S, (3R)-Quinoline-3-carboxylic acid (4-oxo-1-phenyl-3,4,6,7-tetrahydro[1,4]diazepino[6,7,1-hi]indol-3-yl)amide] | 3.3 | –
COc1cc2c3c(c1)C(c1ccccc1)=N[C@@H](NC(=O)c1ccncc1)C(=O)N3CC2 [Example 6C, (3R)-N-(9-methoxy-4-oxo-1-phenyl-3,4,6,7-tetrahydro[1,4]diaze-ino[6,7,1-hi]indol-3-yl)isonicotinamide] | 1.6 | –
COc1cc2c3c(c1)C(c1ccccc1)=N[C@@H](NC(=O)c1cc4ccccc4cn1)C(=O)N3CC2 [Example 6F, (3R)-Isoquinoline-3-carboxylic acid (9-methoxy-4-oxo-1-phenyl-3,4,6,7-tetrahydro[1,4]diazepino-[6,7,1-hi]indol-3-yl)amide] | 1.2 | –
COc1ccc(Cl)cc1C(=O)N[C@@H]1N=C(c2ccccc2)c2cccc3c2N(CC3)C1=O [Example 2N, (3R) -2-Methoxy-5-chloro-N-(4-oxo-1-phenyl-3,4,6,7-tetrahydro[1,4]diazepino[6,7,1-hi]indol-3-yl)-benzamide] | 2.5 | –
COc1cc2c3c(c1)C(c1ccccc1)=N[C@@H](NC(=O)c1ccc4ncccc4c1)C(=O)N3CC2 [Example 6E, (3R) -Quinoline-6-carboxylic acid (9-methoxy-4-oxo-1-phenyl-3,4,6,7-tetrahydro[1,4]diazepino[6,7,1-hi]indol-3-yl)amide] | 1.9 | –
COc1cc(C(=O)N[C@@H]2N=C(c3ccccc3)c3cccc4c3N(CC4)C2=O)cc(OC)c1OC [Example 2M, (3R)-3,4,5-Trimethoxy-N-(4-oxo-1-phenyl-3,4,6,7-tetrahydro[1,4]diazepino[6,7,1-hi]indol-3-yl)-benzamide] | 1.3 | –
O=C(NC1N=C(c2ccccc2)c2cccc3c2N(CC3)C1=O)c1cn2ccccc2n1 (racemic) [Example 1B, (3R,S)-Imidazo[1,2-a]pyridine-2-carboxylic acid N-(4-oxo-1-phenyl-3,4,6,7-tetrahydro1,4]diazepino-[6,7,1-hi]indol-3-yl)amide] | 3.7 | –
COc1ccc(C2CNC(=O)C2)cc1OC1CCCC1 (stereo not drawn) [Rolipram] | – | inhibition of the activity of inflammatory cells (inflammatory cells): inhibits the activity of inflammatory cells in rodents; undesirable effects [1]: nausea and vomiting
COc1cc2c3c(c1)C(c1ccccc1)=N[C@@H](NC(=O)c1cnc4ccccc4c1)C(=O)N3CC2 [Example 6D, (3R)-Quinoline-3-carboxylic acid (9-methoxy-4-oxo-1-phenyl-3,4,6,7-tetrahydro[1,4]diazepino[6,7,1-hi]indol-3-yl)amide] | 1.9 | –
O=C(N[C@@H]1N=C(c2ccccc2)c2cccc3c2N(CC3)C1=O)c1cc2ccccc2cn1 [Example 2V, (3R)-Isocuinoline-3-carboxylic acid (4-oxo-1-phenyl-3,4,6,7-tetrahdro[1,4]diazerino[6,7,1-hi]indol-3-yl)amide] | – | subacute oral toxicity [2]: showed no activity which could be linked with a toxic effect
O=C(N[C@@H]1N=C(c2ccccc2)c2cccc3c2N(CC3)C1=O)c1ccccn1 [Example 2P, (3R)-Pyridine-2-carboxylic acid (4-oxo-1-phenyl-3,4,6,7-tetrahydro[1,4]diazepino[6,7,1-hi]indol-3-yl)amide] | 1.5 | –
Cc1cc2nnc(C(=O)N[C@@H]3N=C(c4ccccc4)c4cccc5c4N(CC5)C3=O)c(C)n2n1 [Example 2Y, (3R)-4,7-Dimethyl-pyrazolo[5,1-c][1,2,4]triazine-3-carboxylic acid (4-oxo-1-phenyl-3,4,6,7-tetrahydro[1,4]diazepino[6,7,1-hi]indol-3-yl)amide] | 1.4 | –
COc1cc2c3c(c1)C(c1ccccc1)=NC(NC(=O)c1cc4ccccc4cn1)C(=O)N3CC2 [Example 5, (3R,S)-Isoquinoline-3-carboxylic acid (9-methoxy-4-oxo-1-phenyl-3,4,6,7-tetrahydro[1,4]-diazepino(6,7,1-hilindol-3yl)amide] | 1.2 | –
COc1cc2c3c(c1)C(c1ccccc1)=N[C@@H](NC(=O)c1ccc(Cl)cc1)C(=O)N3CC2 [Example 6B, (3R)-4-Chloro-N-(9-methoxv-4-oxo-1-phenyl-3,4,6,7-tetrahydro[1,4]diazepino[6,7,1-hi]indol-3-yl)benzamide] | 1.6 | –
COc1cc2c3c(c1)C(c1ccccc1)=N[C@@H](NC(=O)c1cccc(Cl)c1)C(=O)N3CC2 [Example 6A, (3R)-3-Chloro-N-(9-methoxy-4-oxo-1-phenyl-3,4,6,7-tetrahydro[1,4]diazepino[6,7,1-hi]indol-3-yl)benzamide] | 2.7 | –
O=C(N[C@@H]1N=C(c2ccccc2)c2cccc3c2N(CC3)C1=O)c1ccc2ncccc2c1 [Example 2T, (3R)-Quinoline-6-carboxylic acid (4-oxo-1-phenyl-3,4,6,7-tetrahydro[1,4]diaze-ino[6,7,1-hi]indol-3-yl)amide] | 2.0 | –
CC(=O)Nc1ccc(C(=O)N[C@@H]2N=C(c3ccccc3)c3cccc4c3N(CC4)C2=O)cc1 [Example 2O, (3R)-4-Acetamido-N-(4-oxo-1-phenyl-3,4,6,7-tetrahydro[1,4]diazepino[6,7,1-hi]indol-3-yl)-benzamide] | 1.9 | –
COc1cc2c3c(c1)C(c1ccccc1)=N[C@@H](NC(=O)c1nnc4cc(C)nn4c1C)C(=O)N3CC2 [Example 6G, (3R)-4.7-Dimethylpyrazolo[5,1-c[]1,2,4]-triazine-3-carboxylic acid (9-methoxy-4-oxo-1-phenyl-3,4,6,7-tetrahydro[1,4]diazepino[6,7,1-hi]indol-3-yl)-amide] | 2.2 | –
